pEC50, pKi: −log10 of the molar value. Read-outs that look alike come from different tables or passages of the source.
Key:
[1] = target: T1, Rat brain mu opioid receptor (Rattus norvegicus, UniProt P33535); assay: Rat brain mu opioid receptor binding assay ([3H]DAMGO)
T1 construct: from tissue; host or cells: forebrain of male Sprague Dawley rats

[2] = target: T2, delta opioid receptor (Mus musculus, UniProt P32300); assay: [35S]GTPγS binding assay in NG108-15 cell membrane; type: biochemical; conditions: DOR GTPγS EC50, delta opioid receptor GTPγS functional assay
T2 construct: host or cells: NG108-15 cells (membranes, purchased)
T2 sequence (P32300 whole entry): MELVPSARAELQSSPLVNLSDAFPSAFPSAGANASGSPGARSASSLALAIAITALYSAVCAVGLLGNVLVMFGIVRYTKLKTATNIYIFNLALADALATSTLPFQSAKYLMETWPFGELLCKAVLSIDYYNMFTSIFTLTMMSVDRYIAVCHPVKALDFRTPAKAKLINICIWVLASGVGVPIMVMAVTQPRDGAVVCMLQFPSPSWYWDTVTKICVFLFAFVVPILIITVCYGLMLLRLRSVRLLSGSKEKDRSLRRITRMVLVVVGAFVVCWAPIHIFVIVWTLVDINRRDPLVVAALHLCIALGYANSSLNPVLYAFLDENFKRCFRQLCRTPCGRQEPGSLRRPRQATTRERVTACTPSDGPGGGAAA
Procedure: NG108-15 cell membranes were purchased from Applied Cell Sciences (Rockville, Md.). An 8 mg/mL portion of membrane protein was suspended in 10 mM TRIS-HC pH 7.2, 2 mM EDTA, 10% sucrose.
Membranes were maintained at 4-8° C. A 1 mL portion of membranes was added into 10 mL cold binding assay buffer. The assay buffer contained 50 mM Tris, pH 7.6, 5 mM MgCl2, 100 mM NaCl, 1 mM DTT and 1 mM EGTA. The membrane suspension was homogenized with a Polytron for 2 times and centrifuged at 3000 rpm for 10 min. The supernatent was then centrifuged at 18,000 rpm for 20 min. The pellet was saved in a tube and 10 ml assay buffer was added into the tube. The pellet and buffer were mixed with a Polytron.
The pellet membranes (75 μg/ml) were preincubated with SPA (10 mg/ml) at 25° C. for 45 min in the assay buffer. […] GTPγS in the same Tris buffer containing 100 μM GDP in total volume of 200 μl. Increasing concentrations of receptor agonists were used to stimulate [^35S] GTPγS binding. The basal binding was tested in the absent agonists and no specific binding was tested in the present 10 μM unlabeled GTPγS. The data were analyzed on a Top counter.
% of Basal=(stimulate−non specific)*100/(basal−non specific). EC50 values are calculated using a Prism program.

[3] = target: T3, human delta opioid receptor (Homo sapiens, UniProt P41143); assay: [35S]GTPγS binding assay in CHO-hδ cell membranes; type: biochemical; conditions: hDOR GTPγS EC50, human delta opioid receptor GTPγS functional assay
T3 construct: purchased Receptor Biology, Inc. (Baltimore, Md.); host or cells: CHO cells expressing the human delta receptor (membranes)
T3 sequence (P41143 whole entry): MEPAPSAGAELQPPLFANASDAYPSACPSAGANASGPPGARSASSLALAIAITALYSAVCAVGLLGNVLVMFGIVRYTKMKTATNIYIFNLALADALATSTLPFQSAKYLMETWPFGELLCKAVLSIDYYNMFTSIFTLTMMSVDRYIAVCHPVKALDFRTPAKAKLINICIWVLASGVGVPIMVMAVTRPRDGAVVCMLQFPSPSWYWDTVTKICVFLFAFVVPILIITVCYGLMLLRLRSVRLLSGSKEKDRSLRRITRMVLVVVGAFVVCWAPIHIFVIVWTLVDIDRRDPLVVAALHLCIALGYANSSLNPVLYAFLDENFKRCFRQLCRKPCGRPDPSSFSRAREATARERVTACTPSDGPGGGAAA

[4] = target: T4, Rat brain delta opioid receptor (Rattus norvegicus, UniProt P33533); assay: Rat brain delta opioid receptor binding; conditions: rDOR Ki
T4 construct: from tissue; host or cells: rat brain
T4 sequence (P33533 whole entry): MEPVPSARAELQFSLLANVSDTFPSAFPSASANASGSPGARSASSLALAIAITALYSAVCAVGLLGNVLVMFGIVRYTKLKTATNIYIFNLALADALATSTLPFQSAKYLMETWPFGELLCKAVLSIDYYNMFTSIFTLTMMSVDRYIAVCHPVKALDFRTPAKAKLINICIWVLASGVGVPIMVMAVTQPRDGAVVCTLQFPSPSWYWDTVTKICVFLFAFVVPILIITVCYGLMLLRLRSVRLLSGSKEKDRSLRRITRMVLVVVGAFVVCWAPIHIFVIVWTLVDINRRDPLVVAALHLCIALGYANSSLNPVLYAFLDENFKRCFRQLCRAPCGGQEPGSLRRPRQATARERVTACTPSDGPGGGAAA

[5] = target: T5, human mu opioid receptor (Homo sapiens, UniProt P35372); assay: [35S]GTPγS binding assay in CHO-hμ cell membranes; type: biochemical; conditions: inhibition relative to 1 uM DAMGO, read-out: hMOR GTPγS % I @10 μM
T5 construct: purchased Receptor Biology, Inc. (Baltimore, Md.); host or cells: CHO cells expressing the human mu receptor (membranes)
T5 sequence (P35372 whole entry): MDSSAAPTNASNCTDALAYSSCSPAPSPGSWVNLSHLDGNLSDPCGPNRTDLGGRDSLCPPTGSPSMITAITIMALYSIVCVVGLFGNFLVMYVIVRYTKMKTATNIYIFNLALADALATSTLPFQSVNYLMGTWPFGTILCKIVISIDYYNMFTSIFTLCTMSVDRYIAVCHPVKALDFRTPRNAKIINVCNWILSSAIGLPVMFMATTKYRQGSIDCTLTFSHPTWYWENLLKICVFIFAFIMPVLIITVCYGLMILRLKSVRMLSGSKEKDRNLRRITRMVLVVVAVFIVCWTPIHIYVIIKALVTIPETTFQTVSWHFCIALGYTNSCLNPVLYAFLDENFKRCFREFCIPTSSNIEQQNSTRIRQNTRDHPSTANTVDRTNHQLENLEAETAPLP
Procedure: CHO-hμ cell membranes are purchased from Receptor Biology, Inc. (Baltimore, Md.). About 10 mg/ml of membrane protein is suspended in 10 mM TRIS-HC pH 7.2, 2 mM EDTA, 10% sucrose.
Membranes are maintained at 4-8° C. 1 ml of membranes is added into 15 ml cold binding assay buffer. The assay buffer contains 50 mM HEPES, pH 7.6, 5 mM MgCl2, 100 mM NaCl, 1 mM DTT and 1 mM EDTA. The membrane suspension is homogenized with a Polytron 2 times and centrifuged at 3000 rpm for 10 min. The supernatant is then centrifuged at 18,000 rpm for 20 min. The pellet is saved in a tube and 10 ml assay buffer is added to the tube. The pellet and buffer are mixed with a Polytron.
The pellet membranes (20 μg/ml) are preincubated with SPA (10 mg/ml) at 25 C′ for 45 min in the assay buffer. The SPA (5 mg/ml) coupled with membranes (10 μg/ml) is then incubated with 0.5 nM [^35S]GTPgS in the same HEPES buffer containing 50 μM GDP in total volume of 200 μl. Increasing concentrations of receptor agonists are used to stimulate [^35S]GTPgS binding. The basal binding is tested in the absence of agonists and non-specific binding is tested in the present 10 μM unlabeled GTPγS. The data are analyzed on a Top counter.
% of Basal=(stimulate−non-specific)*100/(basal−non specific). % inhibition value values are calculated using a formula, % Inhibition=(% Basal of 1 uM DAMGO−% Basal of compound)*100/(% Basal of 1 uM DAMGO−100)

[6] = tested on: mice; assay: Mouse Abdominal Irritant Test (MAIT); type: in vivo; conditions: @ 30 (dose printed in the cell)
Procedure: The procedure used was that described by Collier et al. (1968), with minor modifications. Thirty minutes after the administration of test drug, the animals received an i.p. injection of 5.5 mg/kg of acetylcholine bromide. The mice were then placed into large glass animal jars and were continuously observed for the first occurrence of a characteristic behavioral response (twisting and elongation of the body which extends throughout the hindlimbs) within the specified observation period of 10 minutes. […] Data % of Basal=(stimulate−non-specific)*100/(basal−non-specific). EC50 value values are calculated using a Prism program.

T1 sequence (P33535 whole entry): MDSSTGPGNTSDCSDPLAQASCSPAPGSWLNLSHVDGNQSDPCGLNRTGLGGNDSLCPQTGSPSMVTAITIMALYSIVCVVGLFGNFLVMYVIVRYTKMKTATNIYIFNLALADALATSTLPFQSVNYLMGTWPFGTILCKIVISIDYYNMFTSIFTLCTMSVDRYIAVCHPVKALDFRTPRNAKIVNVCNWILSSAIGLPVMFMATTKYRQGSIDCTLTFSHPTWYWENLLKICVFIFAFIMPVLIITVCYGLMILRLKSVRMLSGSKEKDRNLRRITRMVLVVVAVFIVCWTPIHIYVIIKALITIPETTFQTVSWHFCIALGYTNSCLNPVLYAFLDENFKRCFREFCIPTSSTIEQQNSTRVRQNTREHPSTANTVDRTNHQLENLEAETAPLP

Compound	pKi ([1]; rMOR Ki)	pEC50 [2]	pEC50 [3]	pKi [4]	pKi ([1]; read-out: rMOR Ki)	inhibition at 10 µM [5]	MAIT % I [6]
CCN(CC)C(=O)c1ccc2c(c1)Oc1ccccc1C2=C1CC2CCC(C1)N2 (single isomer, unassigned) [Compound 52, 9-(8-Aza-bicyclo[3.2.1]oct-3-ylidene)-9H-xanthene-3-carboxylic acid diethylamide]	< 7.00	7.18	8.35	9.21			
CCN(CC)C(=O)c1ccc2c(c1)Oc1ccccc1C2=C1CC2CCC(C1)N2 (single isomer, unassigned) [Compound 53, 9-(8-Aza-bicyclo[3.2.1]oct-3-ylidene)-9H-xanthene-3-carboxylic acid diethylamide]		5.69	6.59	7.30	< 7.00		
CCN(CC)C(=O)c1ccc2c(c1)Oc1ccc(F)cc1C2=C1CC2CCC(C1)N2 [Compound 69]	5.23	6.90		8.30			
CCN(CC)C(=O)c1ccc2c(c1)Sc1ccccc1C2=C1CC2CCC(C1)N2 (single isomer, unassigned) [Compound 61, 9-(8-Aza-bicyclo[3.2.1]oct-3-ylidene)-9H-thioxanthene-3-carboxylic acid diethylamide]	5.14	6.73		6.88			
CCN(CC)C(=O)c1ccc2c(c1)Oc1ccccc1C2=C1CC2CCC(C1)N2Cc1ccoc1 [Compound 25, 9-(8-Furan-3-ylmethyl-8-aza-bicyclo[3.2.1]oct-3-ylidene)-9H-xanthene-3-carboxylic acid diethylamide]	6.06		8.86	11.00		74%	30(@ 30) %
CCN(CC)C(=O)c1ccc2c(c1)Oc1cc(O)ccc1C2=C1CC2CCC(C1)N2 [Compound 76, 9-(8-Aza-bicyclo[3.2.1]oct-3-ylidene)-6-hydroxy-9H-xanthene-3-carboxylic acid diethylamide]	6.55	8.23		8.77			
CCN(CC)C(=O)c1ccc2c(c1)Oc1c(cccc1-c1ccoc1)C2=C1CC2CCC(C1)N2 [Compound 97, 9-(8-Aza-bicyclo[3.2.1]oct-3-ylidene)-5-furan-3-yl-9H-xanthene-3-carboxylic acid diethylamide]	5.74	7.88		8.75			

From US7982042B2, “Thiozanthene derivatives as delta-opioid modulators” (priority 2003, dated 2011)
